Assay results published in ChEMBL document CHEMBL1134410, “Discovery of novel N-phenylglycine derivatives as potent and selective beta(3)-adrenoceptor agonists for the treatment of frequent urination and urinary incontinence” (J Med Chem, 2001).

Assays:
Format in all cases: functional
[1] = target: Beta-2 adrenergic receptor (Rattus norvegicus, UniProt P10608); assay: Agonistic activity towards beta-2 adrenoceptor. Mean concentration required to produce 50% inhibition of uterine contraction
[2] = Concentration ratio of beta-1 (EC50) to beta-3 (EC50)
[3] = Concentration ratio of beta-2 (EC50) to beta3 (EC50)
[4] = target: Beta-1 adrenergic receptor (Rattus norvegicus) (UniProt P18090); assay: Increase in BPM in isolated rat atria.
[5] = Concentration ratio of beta-1 (EC50) to beta3 (EC50)
[6] = Concentration ratio of beta2 (EC50) to […]
Rattus norvegicus [7] = organism: Rattus norvegicus; assay: In vitro concentration required to produce 50% relaxation of rat detrusor
Rattus norvegicus [8] = assay: In vivo dose required to lower the intrabladder pressure of the anesthetized rat by 50% over that before compound administration
Mustela putorius furo = organism: Mustela putorius furo; assay: In vitro concentration required to produce 50% relaxation of ferret detrusor

Sequence of Beta-2 adrenergic receptor (P10608 whole entry): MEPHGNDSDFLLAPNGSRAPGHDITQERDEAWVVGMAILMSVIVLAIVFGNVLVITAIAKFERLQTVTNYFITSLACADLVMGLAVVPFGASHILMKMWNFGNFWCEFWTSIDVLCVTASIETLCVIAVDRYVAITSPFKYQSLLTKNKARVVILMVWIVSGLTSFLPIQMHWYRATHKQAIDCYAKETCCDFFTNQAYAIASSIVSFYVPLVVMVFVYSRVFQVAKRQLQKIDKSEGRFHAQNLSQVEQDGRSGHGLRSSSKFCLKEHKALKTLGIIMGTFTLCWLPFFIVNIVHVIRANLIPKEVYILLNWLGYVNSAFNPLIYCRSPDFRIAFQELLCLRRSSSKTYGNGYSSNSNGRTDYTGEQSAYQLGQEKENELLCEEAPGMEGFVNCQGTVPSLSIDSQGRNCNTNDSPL
Sequence of Beta-1 adrenergic receptor (Rattus norvegicus) (P18090 whole entry, looked up): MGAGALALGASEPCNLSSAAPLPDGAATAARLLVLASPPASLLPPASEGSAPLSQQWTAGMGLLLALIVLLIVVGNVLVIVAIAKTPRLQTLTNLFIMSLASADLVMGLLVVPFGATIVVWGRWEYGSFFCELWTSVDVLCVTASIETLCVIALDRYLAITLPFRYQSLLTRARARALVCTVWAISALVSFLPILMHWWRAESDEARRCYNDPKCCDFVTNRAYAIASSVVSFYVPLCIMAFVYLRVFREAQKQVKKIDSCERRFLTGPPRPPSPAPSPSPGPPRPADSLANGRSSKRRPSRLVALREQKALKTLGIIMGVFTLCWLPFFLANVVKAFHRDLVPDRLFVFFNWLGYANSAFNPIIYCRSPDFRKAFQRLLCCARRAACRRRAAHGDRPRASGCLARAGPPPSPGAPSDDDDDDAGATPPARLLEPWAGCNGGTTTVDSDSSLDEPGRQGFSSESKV

IC50 [1] | -Log EC20 [4] | SMILES | Selectivity [3] | Selectivity [5] | also measured
1410 nM | 6.59 | C[C@H](NCCc1ccc(NC(C)(C)C(=O)O)cc1Cl)[C@H](O)c1ccc(O)cc1 | 250 |  | Selectivity [2]: 46
61.7 nM | 6.96 | C[C@H](NCCc1ccc(NCC(=O)O)cc1Cl)[C@H](O)c1ccc(O)cc1 | 8.6 | 15 | 
24 nM | 6.8 | CC(NCCc1ccc(O)cc1)C(O)c1ccc(O)cc1 (configuration not stated) [RITODRINE] |  |  | 
1410 nM | 5.1 | C[C@H](NCCc1ccc(NCC(=O)O)c(Br)c1)[C@H](O)c1ccc(O)cc1 | 2.5 | 14 | 
 | > 4 | C[C@H](NCCc1cc(Cl)c(N(C)CC(=O)O)c(Cl)c1)[C@H](O)c1ccc(O)cc1 | > 625 | > 625 | -Log IC50 [1]: > 4
1700 nM | 6.82 | C[C@H](NCCc1ccc(NCC(=O)O)c(Cl)c1Cl)[C@H](O)c1ccc(O)cc1 | 3.7 | 0.33 | 
2190 nM | 5.27 | C[C@H](NCCc1ccc(NCC(=O)O)c(I)c1)[C@H](O)c1ccc(O)cc1 | 2.7 | 6.6 | 
11000 nM | 4.96 | C[C@H](NCCc1ccc(NC(C)(C)C(=O)O)cc1)[C@H](O)c1ccc(O)cc1 |  |  | 
3310 nM | 5.57 | C[C@H](NCCc1ccc(NCC(=O)O)c(Cl)c1)[C@H](O)c1ccc(O)cc1 |  | 2900 | Selectivity [6]: 3550
2570 nM | 4.72 | C[C@H](NCCc1cc(Br)c(NCC(=O)O)c(Br)c1)[C@H](O)c1ccc(O)cc1 | 32 | 235 | 
1290 nM | 5.89 | C[C@H](NCCc1cc(Cl)c(NCC(=O)O)cc1Cl)[C@H](O)c1ccc(O)cc1 | 21 | 21 | 
282 nM | 4.57 | C[C@H](NCCc1ccc(N(CC(=O)O)CC(=O)O)cc1)[C@H](O)c1ccc(O)cc1 |  |  | 
14100 nM | 4.54 | C[C@H](NCCc1cc(Cl)c(NCC(=O)O)c(Cl)c1)[C@H](O)c1ccc(O)cc1 | 1000 | 2070 | EC50 (Rattus norvegicus [7]): 191 nM; ED50 (Rattus norvegicus [8]): 0.048 mg/kg; EC50 (Mustela putorius furo): 14.1 nM
646 nM | 5.89 | C[C@H](NCCc1ccc(NCC(=O)O)cc1)[C@H](O)c1ccc(O)cc1 | 27 | 54 | 
1580 nM | 5.47 | C[C@H](NCCc1ccc(N(C)CC(=O)O)cc1)[C@H](O)c1ccc(O)cc1 | 31 | 65 | 
 | 4.6 | C[C@H](NCCc1ccc(N(C)CC(=O)O)c(Cl)c1)[C@H](O)c1ccc(O)cc1 | > 9090 | 2270 | -Log IC50 [1]: > 4
 |  | CC(C)NCC(O)c1ccc(O)c(O)c1 (configuration not stated) [ISOPROTERENOL] |  |  | EC50 (Rattus norvegicus [7]): 10 nM; ED50 (Rattus norvegicus [8]): 0.0006 mg/kg

SMILES | IC50 [1] | -Log EC20 [4] | Selectivity [3] | Selectivity [5] | also measured
C[C@H](NCCc1ccc(N(CC(=O)O)Cc2ccccc2)cc1)[C@H](O)c1ccc(O)cc1 | 251 nM | 6.82 |  |  | 
C[C@H](Cc1ccc(OCC(=O)O)cc1)NC[C@H](O)c1cccc(Cl)c1 | 9.12 nM |  |  |  | 
C[C@H](Cc1ccc2c(c1)OC(C(=O)O)(C(=O)O)O2)NC[C@H](O)c1cccc(Cl)c1 |  | 4.77 |  |  | 
